Test [1] deals with Histamine H1 receptor (Cavia porcellus) (UniProt P31389). The test is described as follows: Antagonist activity at histamine H1 receptor in guinea pig ileum assessed as inhibition of histamine-induced contraction at 0.1 uM treated for 15 mins prior to histamine challenge. The class given is tissue-based.
Test [2] relates to Ileum. Description: Inhibition of acetylcholine-induced contraction in guinea pig ileum at 0.1 uM treated for 15 mins prior to acetylcholine challenge. The class given is functional, tissue-based. The following applies: Cavia porcellus.
Test [3] addresses Histamine H1 receptor (Cavia porcellus) (UniProt P31389). The test is described as follows: Antagonist activity at histamine H1 receptor in guinea pig ileum assessed as inhibition of histamine-induced contraction treated for 15 mins prior to histamine challenge. The class given is tissue-based.
In test [4] the test system is Ileum. The test is described as follows: Inhibition of barium chloride-induced contraction in guinea pig ileum at 5 uM. The class given is functional. The following applies: Cavia porcellus.
Test [5] concerns the target Histamine N-methyltransferase (Cavia porcellus, UniProt Q9EST2). The test is described as follows: Inhibition of histamine N-methyltransferase in guinea pig brain using S-adenosyl-L-methionine-14C as substrate by scintillation spectrophotometer.
Test [6] relates to Ileum. Description: Inhibition of acetylcholine-induced contraction in guinea pig ileum treated for 15 mins prior to acetylcholine challenge. The format is functional. The following applies: Cavia porcellus, read-out: ED50 (the source's name).
Test [7] concerns Ileum. The test is described as follows: Inhibition of barium chloride-induced contraction in guinea pig ileum at 2 uM. The class given is functional. The following applies: Cavia porcellus.
For test [8], the target named is Histamine H1 receptor (Cavia porcellus) (UniProt P31389). The test is described as follows: Antagonist activity at histamine H1 receptor in guinea pig ileum assessed as inhibition of histamine-induced contraction at 50 nM treated for 15 mins prior to histamine challenge. The format is tissue-based.
Test [9] shares this target. The test is described as follows: Antagonist activity at histamine H1 receptor in guinea pig ileum assessed as inhibition of histamine-induced contraction at 10 nM treated for 15 mins prior to histamine challenge. The class given is tissue-based.

Activity calls are given as the source filed them. The rule behind the calls is not given here.

As a reminder, the inhibition is the share of the control response that was lost under treatment. By Ki is commonly meant the dissociation constant of the complex between target and ligand, obtained from inhibition or displacement. Read a high Ki as a looser hold on the target.

Histamine H1 receptor (Cavia porcellus), sequence (P31389 whole entry): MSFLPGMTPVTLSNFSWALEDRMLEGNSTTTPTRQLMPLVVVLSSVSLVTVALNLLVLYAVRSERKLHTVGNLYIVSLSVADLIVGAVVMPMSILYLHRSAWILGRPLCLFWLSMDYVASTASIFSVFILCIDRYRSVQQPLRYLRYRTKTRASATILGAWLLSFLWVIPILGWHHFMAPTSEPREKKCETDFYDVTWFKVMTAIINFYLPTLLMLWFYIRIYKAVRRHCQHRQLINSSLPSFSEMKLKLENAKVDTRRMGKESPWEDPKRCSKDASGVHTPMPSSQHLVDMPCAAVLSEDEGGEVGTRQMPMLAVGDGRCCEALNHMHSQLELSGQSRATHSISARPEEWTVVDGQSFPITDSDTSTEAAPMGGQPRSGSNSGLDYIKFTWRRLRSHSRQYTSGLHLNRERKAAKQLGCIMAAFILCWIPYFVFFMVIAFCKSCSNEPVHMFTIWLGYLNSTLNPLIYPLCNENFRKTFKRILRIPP
Histamine N-methyltransferase, sequence (Q9EST2 whole entry): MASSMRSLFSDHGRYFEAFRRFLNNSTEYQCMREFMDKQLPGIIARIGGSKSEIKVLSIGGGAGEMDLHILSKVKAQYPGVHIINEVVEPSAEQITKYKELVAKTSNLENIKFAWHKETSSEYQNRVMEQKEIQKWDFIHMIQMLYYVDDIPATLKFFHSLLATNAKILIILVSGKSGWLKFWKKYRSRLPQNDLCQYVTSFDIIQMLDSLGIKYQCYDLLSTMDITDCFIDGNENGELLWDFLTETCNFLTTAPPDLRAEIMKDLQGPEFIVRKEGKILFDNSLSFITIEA

For `CN(C)CCN(Cc1ccccc1)c1ccccn1`, the inhibition in [1] is 66%. Also, the inhibition entry in the test on Ileum [2] was “inactive”.

Regarding `CN(C)[C@H]1CC[C@H](c2ccccc2)N(Cc2ccccc2)C1` (relative stereo), the ED50 in [3] is 6.72 µM. The compound further displayed an inhibition at 5 µM in the test with Ileum [4] of 39%. In addition, in test [5], affinity was put at a Ki of 247 µM. For the same compound, in the test on Ileum [6], the EC50 was found to be 2.9 µM.

Regarding `CN(C)[C@@H]1CC[C@H](c2ccccc2)N(Cc2ccccc2)C1` (relative stereo), the ED50 in test [3] stood at 1.83 µM. In test [5], this compound yielded a Ki of 31.6 µM. Moreover, in the test with Ileum [7], 2 µM produced 50% inhibition. For the same compound, the EC50 in the test on Ileum [6] was determined as 1.45 µM.

On to `CN(C)[C@@H]1C[C@H](c2ccccc2)N(c2ccccc2)C1` (relative stereo), for which the inhibition in [8] amounted to 45%.

Regarding `CN(C)[C@H]1C[C@H](c2ccccc2)N(c2ccccc2)C1` (relative stereo), in [9], the inhibition came to 85%.
